Holding throughout (experiment): Enzymatic activity of PI3K isoforms, TR-FRET assay (PIP3 formation)
What all share (type): biochemical

One assay addresses PI3Kα (Homo sapiens (Human), UniProt P42336). In a few lines: (§1)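 After 30 min at 25° C, reactions were quenched with 10 mM EDTA plus 10 nM labeled-PIP3 and 35 nM Europium-GRP-1, and TR-FRET was read (Ex 340, Em 615/665 nm). Enzymes were purified recombinant heterodimers; product PIP3 competes off the labeled tracer. Values given as IC50, nM.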
A further assay concerns the target PI3Kδ (Homo sapiens (Human), UniProt O00329). The note with it: bound given in nM. In short, it runs like this:
as §1

The target of another assay is PI3Kβ (Homo sapiens (Human), UniProt P42338). In a few lines:
(§2)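 IC50 (nM) reflects inhibition of PIP3 formation by purified recombinant heterodimeric PI3K, measured as loss of TR-FRET signal. The read-out comes from competition between enzyme-made PIP3 and labelled PIP3 for binding to the GRP-1 pleckstrin homology domain.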

The target in a further assay is PI3Kγ (Homo sapiens (Human), UniProt P48736). In short, it runs like this:
as §2

PI3Kβ, sequence (P42338 whole entry, the tested form may be a part): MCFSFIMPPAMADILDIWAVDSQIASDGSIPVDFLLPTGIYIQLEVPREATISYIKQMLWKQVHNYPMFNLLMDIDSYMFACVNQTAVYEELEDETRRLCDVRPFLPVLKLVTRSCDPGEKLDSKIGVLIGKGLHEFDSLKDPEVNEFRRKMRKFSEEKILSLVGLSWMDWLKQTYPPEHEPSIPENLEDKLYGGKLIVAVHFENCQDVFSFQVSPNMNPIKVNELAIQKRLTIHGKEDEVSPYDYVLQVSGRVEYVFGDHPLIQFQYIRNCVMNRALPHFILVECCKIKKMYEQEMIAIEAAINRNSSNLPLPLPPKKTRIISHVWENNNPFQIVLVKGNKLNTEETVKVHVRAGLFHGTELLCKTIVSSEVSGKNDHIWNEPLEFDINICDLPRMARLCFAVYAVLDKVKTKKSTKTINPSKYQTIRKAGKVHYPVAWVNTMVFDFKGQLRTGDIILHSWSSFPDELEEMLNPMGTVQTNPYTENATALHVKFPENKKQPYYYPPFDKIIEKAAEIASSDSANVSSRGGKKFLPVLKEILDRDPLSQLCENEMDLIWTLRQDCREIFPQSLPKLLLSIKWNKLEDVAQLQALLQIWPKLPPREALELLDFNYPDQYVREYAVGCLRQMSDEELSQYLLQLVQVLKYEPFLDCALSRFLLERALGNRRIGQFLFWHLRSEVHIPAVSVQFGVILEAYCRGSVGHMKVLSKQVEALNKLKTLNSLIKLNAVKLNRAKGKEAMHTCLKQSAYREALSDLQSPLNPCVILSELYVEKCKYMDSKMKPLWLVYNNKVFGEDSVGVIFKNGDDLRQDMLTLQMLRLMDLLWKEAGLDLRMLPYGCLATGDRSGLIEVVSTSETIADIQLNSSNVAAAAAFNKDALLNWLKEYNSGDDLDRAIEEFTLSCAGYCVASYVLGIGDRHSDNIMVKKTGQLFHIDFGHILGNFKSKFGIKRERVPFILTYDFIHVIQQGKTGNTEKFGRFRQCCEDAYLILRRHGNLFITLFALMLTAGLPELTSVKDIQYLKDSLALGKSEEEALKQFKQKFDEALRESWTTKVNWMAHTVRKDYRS
PI3Kβ, sequence (P27986 whole entry partner, the tested form may be a part): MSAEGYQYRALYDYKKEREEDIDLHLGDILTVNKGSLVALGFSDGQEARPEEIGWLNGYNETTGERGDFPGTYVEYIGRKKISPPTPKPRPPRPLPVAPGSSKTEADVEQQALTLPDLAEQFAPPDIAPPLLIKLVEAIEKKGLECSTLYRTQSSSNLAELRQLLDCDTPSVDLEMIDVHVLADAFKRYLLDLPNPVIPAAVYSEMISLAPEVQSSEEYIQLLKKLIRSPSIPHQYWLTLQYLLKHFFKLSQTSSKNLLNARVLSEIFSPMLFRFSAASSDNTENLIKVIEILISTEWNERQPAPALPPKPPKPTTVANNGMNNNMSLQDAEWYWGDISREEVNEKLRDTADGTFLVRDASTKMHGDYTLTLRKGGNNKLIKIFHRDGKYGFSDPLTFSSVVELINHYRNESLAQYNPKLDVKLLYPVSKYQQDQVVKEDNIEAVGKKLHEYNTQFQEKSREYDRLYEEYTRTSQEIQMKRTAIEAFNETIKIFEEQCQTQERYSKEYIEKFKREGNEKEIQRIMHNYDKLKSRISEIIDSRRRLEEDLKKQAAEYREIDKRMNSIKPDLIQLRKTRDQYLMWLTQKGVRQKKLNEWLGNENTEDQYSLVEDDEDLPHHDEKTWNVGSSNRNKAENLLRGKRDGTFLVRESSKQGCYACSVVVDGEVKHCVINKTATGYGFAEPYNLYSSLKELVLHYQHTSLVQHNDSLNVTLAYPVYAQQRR
PI3Kδ, sequence (O00329 whole entry): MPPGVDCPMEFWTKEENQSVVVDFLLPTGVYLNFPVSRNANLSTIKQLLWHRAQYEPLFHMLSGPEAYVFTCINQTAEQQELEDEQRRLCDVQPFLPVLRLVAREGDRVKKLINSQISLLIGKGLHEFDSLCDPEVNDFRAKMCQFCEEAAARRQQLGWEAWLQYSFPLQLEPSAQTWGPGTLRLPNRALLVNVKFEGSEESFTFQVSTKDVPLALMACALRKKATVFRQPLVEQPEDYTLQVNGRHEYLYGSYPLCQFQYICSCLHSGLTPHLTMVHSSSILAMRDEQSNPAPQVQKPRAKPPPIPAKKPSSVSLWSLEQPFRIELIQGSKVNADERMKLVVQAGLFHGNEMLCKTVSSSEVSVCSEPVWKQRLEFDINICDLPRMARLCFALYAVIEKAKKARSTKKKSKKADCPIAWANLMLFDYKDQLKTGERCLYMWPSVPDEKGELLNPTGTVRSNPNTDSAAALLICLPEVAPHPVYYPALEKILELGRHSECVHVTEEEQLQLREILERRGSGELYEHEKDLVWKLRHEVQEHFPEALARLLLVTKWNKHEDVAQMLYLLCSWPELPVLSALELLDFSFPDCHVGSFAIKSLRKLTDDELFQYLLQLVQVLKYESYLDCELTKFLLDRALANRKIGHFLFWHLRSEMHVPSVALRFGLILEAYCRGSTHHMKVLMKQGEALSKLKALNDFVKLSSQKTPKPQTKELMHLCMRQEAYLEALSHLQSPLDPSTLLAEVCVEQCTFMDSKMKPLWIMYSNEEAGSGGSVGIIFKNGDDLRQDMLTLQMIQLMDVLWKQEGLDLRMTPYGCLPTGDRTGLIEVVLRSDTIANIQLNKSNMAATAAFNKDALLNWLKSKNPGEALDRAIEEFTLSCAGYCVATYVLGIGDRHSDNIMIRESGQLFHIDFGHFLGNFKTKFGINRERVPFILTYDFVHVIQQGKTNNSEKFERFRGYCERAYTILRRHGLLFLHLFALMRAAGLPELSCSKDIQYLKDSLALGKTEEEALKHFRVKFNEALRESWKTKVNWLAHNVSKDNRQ
PI3Kδ, sequence (P27986 whole entry partner): as the sequence (P27986 whole entry partner, the tested form may be a part) above
PI3Kα, sequence (P42336 whole entry): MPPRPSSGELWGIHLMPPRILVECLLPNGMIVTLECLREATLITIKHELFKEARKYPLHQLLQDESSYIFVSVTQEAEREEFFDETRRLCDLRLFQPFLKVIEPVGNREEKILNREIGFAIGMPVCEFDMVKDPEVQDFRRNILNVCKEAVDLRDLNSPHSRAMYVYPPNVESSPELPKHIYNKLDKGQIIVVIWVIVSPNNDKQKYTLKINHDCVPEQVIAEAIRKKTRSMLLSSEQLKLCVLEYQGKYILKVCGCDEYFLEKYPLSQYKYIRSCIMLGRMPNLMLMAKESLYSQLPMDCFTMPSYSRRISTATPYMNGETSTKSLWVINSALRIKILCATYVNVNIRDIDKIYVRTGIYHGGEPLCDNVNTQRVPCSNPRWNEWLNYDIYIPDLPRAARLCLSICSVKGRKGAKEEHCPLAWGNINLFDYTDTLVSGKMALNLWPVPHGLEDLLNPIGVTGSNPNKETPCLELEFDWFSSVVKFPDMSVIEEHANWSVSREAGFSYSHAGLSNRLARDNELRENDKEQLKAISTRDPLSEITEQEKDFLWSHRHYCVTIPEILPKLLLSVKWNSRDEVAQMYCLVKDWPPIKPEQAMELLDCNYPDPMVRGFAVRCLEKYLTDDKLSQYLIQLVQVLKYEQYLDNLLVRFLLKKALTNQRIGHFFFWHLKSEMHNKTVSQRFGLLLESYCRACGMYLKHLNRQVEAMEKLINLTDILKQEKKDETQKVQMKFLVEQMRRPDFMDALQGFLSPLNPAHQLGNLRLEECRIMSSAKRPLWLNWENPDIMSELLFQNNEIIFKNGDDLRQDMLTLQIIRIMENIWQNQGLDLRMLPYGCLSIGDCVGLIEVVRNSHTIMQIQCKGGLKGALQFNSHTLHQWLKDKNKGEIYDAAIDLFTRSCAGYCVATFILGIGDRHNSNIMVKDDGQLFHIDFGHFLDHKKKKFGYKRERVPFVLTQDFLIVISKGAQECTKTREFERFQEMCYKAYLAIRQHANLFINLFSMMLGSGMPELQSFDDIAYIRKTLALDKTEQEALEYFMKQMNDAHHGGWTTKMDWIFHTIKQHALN
PI3Kα, sequence (P27986 whole entry partner): as the sequence (P27986 whole entry partner, the tested form may be a part) above

As for `Cc1ccc(F)c2nc([C@H](C)Nc3ncnc(N)c3C#Cc3ccc(F)cn3)n(-c3cccc(C#N)c3)c(=O)c12` [Compound 72a, (S)-3-(2-(1-((6-amino-5-((5-fluoropyridin-2-yl)ethynyl)pyrimidin-4-yl)amino)ethyl)-8-fluoro-5-methyl-4-oxoquinazolin-3(4H)-yl)benzonitrile], the IC50 against PI3Kα (bound given in uM) is > 1 µM; against PI3Kδ it was < 100 nM; against PI3Kβ (bound given in uM), > 1 µM; against PI3Kγ (bound given in uM), > 1 µM.
For the molecule `C[C@H](Nc1ncnc(N)c1C#CC1CCCCC1)c1nc2cccc(Cl)c2c(=O)n1-c1ccccc1` [Compound 145a, (S)-2-(1-((6-amino-5-(cyclohexylethynyl)pyrimidin-4-yl)amino)ethyl)-5-chloro-3-phenylquinazolin-4(3H)-one], the IC50 was > 1 µM against PI3Kα (bound given in uM), < 100 nM against PI3Kδ, > 1 µM on PI3Kβ (bound given in uM) and > 1 µM against PI3Kγ (bound given in uM).
As to `C[C@H](Nc1ncnc(N)c1C#Cc1ccc(F)cn1)c1nc2cccc(O)c2c(=O)n1-c1ccccc1` [Compound 52a, (S)-2-(1-((6-amino-5-((5-fluoropyridin-2-yl)ethynyl)pyrimidin-4-yl)amino)ethyl)-5-hydroxy-3-phenylquinazolin-4(3H)-one], the IC50 is > 1 µM against PI3Kα (bound given in uM), < 100 nM on PI3Kδ, > 1 µM against PI3Kβ (bound given in uM) and > 1 µM against PI3Kγ (bound given in uM).
In the case of `CC[C@H](Nc1ncnc(N)c1C#Cc1cnccn1)c1nc2cccc(F)c2c(=O)n1-c1cc(F)cc(F)c1` [Compound 107a, (S)-2-(1-((6-amino-5-(pyrazin-2-ylethynyl)pyrimidin-4-yl)amino)propyl)-3-(3,5-difluorophenyl)-5-fluoroquinazolin-4(3H)-one], the IC50 on PI3Kα (bound given in uM) is > 1 µM; against PI3Kδ, < 100 nM; on PI3Kβ (bound given in uM), > 1 µM; against PI3Kγ (bound given in uM) it was > 1 µM.
As for `C[C@H](Nc1ncnc(N)c1C#Cc1cnccn1)c1nc2cccc(Cl)c2c(=O)n1-c1cc(F)cc(F)c1` [Compound 85a, (S)-2-(1-((6-amino-5-(pyrazin-2-ylethynyl)pyrimidin-4-yl)amino)ethyl)-5-chloro-3-(3,5-difluorophenyl)quinazolin-4(3H)-one], the 50% inhibitory concentration (IC50) at PI3Kα (bound given in uM) was > 1 µM; at PI3Kδ, < 100 nM; against PI3Kβ (bound given in uM) it was > 1 µM; on PI3Kγ (bound given in uM), > 1 µM.
Regarding `COc1cc(F)cc(C#Cc2c(N)ncnc2N[C@@H](C)c2nc3c(F)cccc3c(=O)n2-c2ccccc2)c1` [Compound 64a, (S)-2-(1-((6-amino-5-((3-fluoro-5-methoxyphenyl)ethynyl)pyrimidin-4-yl)amino)ethyl)-8-fluoro-3-phenylquinazolin-4(3H)-one], the IC50 against PI3Kα (bound given in uM) was > 1 µM; against PI3Kδ, < 100 nM; at PI3Kβ (bound given in uM) it was > 1 µM; at PI3Kγ (bound given in uM), > 1 µM.
Take `C[C@H](Nc1ncnc(N)c1C#Cc1cnc(N)cc1C(F)(F)F)c1nc2cccc(Cl)c2c(=O)n1-c1ccccc1` [Compound 18a, (S)-2-(1-(6-amino-5-((6-amino-4-(trifluoromethyl)pyridin-3-yl)ethynyl)pyrimidin-4-ylamino)ethyl)-5-chloro-3-phenylquinazolin-4(3H)-one]: the IC50 is < 0.1 µM against PI3Kα (bound given in nM), < 100 nM at PI3Kδ, < 0.1 µM on PI3Kβ (bound given in nM) and < 0.1 µM against PI3Kγ (bound given in nM).
Regarding `C[C@H](Nc1ncnc(N)c1C#Cc1cc(C(F)F)ccn1)c1nc2cccc(Cl)c2c(=O)n1-c1ccccc1` [Compound 149a, (S)-2-(1-((6-amino-5-((4-(difluoromethyl)pyridin-2-yl)ethynyl)pyrimidin-4-yl)amino)ethyl)-5-chloro-3-phenylquinazolin-4(3H)-one], the IC50 against PI3Kα (bound given in uM) is > 1 µM; against PI3Kδ, < 100 nM; at PI3Kβ (bound given in nM), < 0.1 µM; on PI3Kγ (bound given in nM), < 0.1 µM.
Turning to `C[C@H](Nc1ncnc(N)c1C#Cc1ccc(F)cn1)c1nc2c(Cl)cccc2c(=O)n1-c1ccccc1` [Compound 5a, (S)-2-(1-(6-amino-5-((5-fluoropyridin-2-yl)ethynyl)pyrimidin-4-ylamino)ethyl)-8-chloro-3-phenylquinazolin-4(3H)-one], the IC50 against PI3Kα (bound given in uM) is > 1 µM; against PI3Kδ, < 100 nM; at PI3Kβ (bound given in uM), > 1 µM; against PI3Kγ (bound given in uM), > 1 µM.

Source of the values: patent US9266878B2, “Phosphatidylinositol 3-kinase inhibitors” (Gilead Calistoga LLC, priority 2012, dated 2016).
